Experimental data reported in patent US9109041B2, “Analog compounds of analgesic peptides derived from the venom of crotalus durissus terrificus snakes, their uses, compositions, methods of preparation and purification” (priority 2004, dated 2015).

Test system: allodynia induced by constriction of the sciatic nerve
Assay: allodynia induced by chronic constriction of the sciatic nerve (von Frey hairs)
Type: in vivo, rat
Details: for paw withdrawal threshold (allodynia), FM 24 h: day 14, 24 h after peptide; for paw withdrawal threshold (allodynia), FM 48 h: day 14, 48 h after peptide; for paw withdrawal threshold (allodynia), FM 72 h: day 14, 72 h after peptide; for paw withdrawal threshold (allodynia), FM 96 h: day 14, 96 h after peptide
Experimental: For the induction of neuropathic pain, surgery was performed in the sciatic nerve, in accordance with the method described by Bennett, G. J and Xie, Y. K. (Pain, 33:87-107, 1988). The animals were anesthetized with halothane. The sciatic nerve was exposed in the middle region of the thigh, moving away the femoral biceps muscle. Close to the trifurcation of the sciatic nerve, 7 mm of distance from the trifurcation, 4 loose ligations were performed (chromed catgut 4-0) around it, distant from each other in approximately 1 mm. The bindings were performed along the nerve, up to 4-5 mm from the initial point. The incision was sutured in layers, using silk suture thread number 4-0.
Allodynia was evaluated for quantitative testing, in response to tactile stimulus applied to the paws of the rat, according to the method described by Chaplan el al. (1994), modified. In this test, the rats were placed, individually, in plastic cages, with meshed wire at the bottom, to allow access to the paws of these animals. Briefly, a logarithmic series of 10 calibrated Semmes-Weinstein monofilaments (von Frey hairs, Aesthesiometer Semmer-Weinstein, Stoelting Co., E.U.A) was applied to the right hind paw to determine the stimulus intensity threshold stiffness required to elicit a paw withdrawal response. Log stiffness of the hairs is determined by log 10 (mg×10) having the following values (the value in grams is between parenthesis): 3.61 (0.407 g); 3.84 (0.692 g); 4.08 (1.202 g); 4.17 (1.479 g); 4.31 (2.041 g); 4.56 (3.630 g); 4.74 (5.495 g); 4.93 (8.511 g); 5.07 (11.749 g) and 5.18 (15.136 g). It is important to point out that the filaments with weight greater than 15.136 g were not employed in the studies of allodynia.
The filaments were applied, one by one, perpendicularly, under the plantar area of both hind paws and maintained for a period of 8 seconds. The filament capable of eliciting the withdrawal of the paw, two consecutive times, was considered as the force in grams necessary to elicit the response (100% of response). In the absence of a response to the greater stimulus (15.135 g), this filament was considered as cut value.
The behavioral responses were used to calculate the 50% paw withdrawal threshold (absolute threshold), by fitting a gaussian integral psychometric function, using a maximum-likelihood fitting method. This fitting method allows parametric analyses.
The period of the application of the test and the treatments were the same as those used for determination of hyperalgesia (Table 12).
The results were analyzed by comparing the means of the basal and initial measurements or, when determined, by comparing the means obtained in the different experimental groups.
For this purpose, the animals were treated with CTOP, a specific μ receptor antagonist (20 μg/paw), nor-BNI, a specific κ receptor antagonist (50 μg/paw) or with ICI 174,864, a specific δ receptor antagonist (10 μg/paw). The antagonists were injected, by intraplantar route. The peptide was administered in the dose of 5 μg/kg, orally, immediately before the injection of the opioid antagonists.
The results were analyzed comparing the mean values of the basal and initial measurements, or of the initial and final measurements or, when determined, by comparing the mean values obtained in the different experimental groups (Tables 15 and 16).

Xaa-Phe-Ser-Pro-Glu-Asn-Cys-Gln-Gly-Glu-Ser-Gln-Pro-Cys [SEQ ID NO: 2]
paw withdrawal threshold (allodynia), BM (0.0016 μg/kg p.o., before surgery): 5.02 ± 0.03 log 10 (mg × 10) | paw withdrawal threshold (allodynia), FM 1 h (0.0016 μg/kg p.o., day 14, 1 h after peptide): 4.22 ± 0.00 log 10 (mg × 10) | paw withdrawal threshold (allodynia), FM 3 h (0.0016 μg/kg p.o., day 14, 3 h after peptide): 4.22 ± 0.00 log 10 (mg × 10) | paw withdrawal threshold (allodynia), FM 24 h (0.0016 μg/kg p.o.): 4.22 ± 0.00 log 10 (mg × 10) | paw withdrawal threshold (allodynia), FM 48 h (0.0016 μg/kg p.o.): 4.22 ± 0.00 log 10 (mg × 10) | paw withdrawal threshold (allodynia), FM 72 h (0.0016 μg/kg p.o.): 4.22 ± 0.00 log 10 (mg × 10) | paw withdrawal threshold (allodynia), FM 96 h (0.0016 μg/kg p.o.): 4.22 ± 0.00 log 10 (mg × 10) | paw withdrawal threshold (allodynia), IM (0.0016 μg/kg p.o., day 14 after surgery, before peptide): 4.22 ± 0.00 log 10 (mg × 10) | paw withdrawal threshold (allodynia), BM (0.008 μg/kg p.o., before surgery): 4.99 ± 0.02 log 10 (mg × 10) | paw withdrawal threshold (allodynia), FM 1 h (0.008 μg/kg p.o., day 14, 1 h after peptide): 4.22 ± 0.00 log 10 (mg × 10) | paw withdrawal threshold (allodynia), FM 3 h (0.008 μg/kg p.o., day 14, 3 h after peptide): 4.22 ± 0.00 log 10 (mg × 10) | paw withdrawal threshold (allodynia), FM 24 h (0.008 μg/kg p.o.): 4.22 ± 0.00 log 10 (mg × 10) | paw withdrawal threshold (allodynia), FM 48 h (0.008 μg/kg p.o.): 4.22 ± 0.00 log 10 (mg × 10) | paw withdrawal threshold (allodynia), FM 72 h (0.008 μg/kg p.o.): 4.22 ± 0.00 log 10 (mg × 10) | paw withdrawal threshold (allodynia), FM 96 h (0.008 μg/kg p.o.): 4.22 ± 0.00 log 10 (mg × 10) | paw withdrawal threshold (allodynia), IM (0.008 μg/kg p.o., day 14 after surgery, before peptide): 4.22 ± 0.00 log 10 (mg × 10) | paw withdrawal threshold (allodynia), BM (0.04 μg/kg p.o., before surgery): 4.97 ± 0.99 log 10 (mg × 10) | paw withdrawal threshold (allodynia), FM 1 h (0.04 μg/kg p.o., day 14, 1 h after peptide): 4.22 ± 0.00 log 10 (mg × 10) | paw withdrawal threshold (allodynia), FM 3 h (0.04 μg/kg p.o., day 14, 3 h after peptide): 4.22 ± 0.00 log 10 (mg × 10) | paw withdrawal threshold (allodynia), FM 24 h (0.04 μg/kg p.o.): 4.22 ± 0.00 log 10 (mg × 10) | paw withdrawal threshold (allodynia), FM 48 h (0.04 μg/kg p.o.): 4.26 ± 0.04 log 10 (mg × 10) | paw withdrawal threshold (allodynia), FM 72 h (0.04 μg/kg p.o.): 4.22 ± 0.00 log 10 (mg × 10) | paw withdrawal threshold (allodynia), FM 96 h (0.04 μg/kg p.o.): 4.22 ± 0.00 log 10 (mg × 10) | paw withdrawal threshold (allodynia), IM (0.04 μg/kg p.o., day 14 after surgery, before peptide): 4.22 ± 0.00 log 10 (mg × 10) | paw withdrawal threshold (allodynia), BM (0.2 μg/kg p.o., before surgery): 5.03 ± 0.02 log 10 (mg × 10) | paw withdrawal threshold (allodynia), FM 1 h (0.2 μg/kg p.o., day 14, 1 h after peptide): 4.41 ± 0.00 log 10 (mg × 10) | paw withdrawal threshold (allodynia), FM 3 h (0.2 μg/kg p.o., day 14, 3 h after peptide): 4.41 ± 0.00 log 10 (mg × 10) | paw withdrawal threshold (allodynia), FM 24 h (0.2 μg/kg p.o.): 4.41 ± 0.00 log 10 (mg × 10) | paw withdrawal threshold (allodynia), FM 48 h (0.2 μg/kg p.o.): 4.41 ± 0.00 log 10 (mg × 10) | paw withdrawal threshold (allodynia), FM 72 h (0.2 μg/kg p.o.): 4.41 ± 0.00 log 10 (mg × 10) | paw withdrawal threshold (allodynia), FM 96 h (0.2 μg/kg p.o.): 4.22 ± 0.00 log 10 (mg × 10) | paw withdrawal threshold (allodynia), IM (0.2 μg/kg p.o., day 14 after surgery, before peptide): 4.22 ± 0.00 log 10 (mg × 10) | paw withdrawal threshold (allodynia), BM (1 μg/kg p.o., before surgery): 5.06 ± 0.02 log 10 (mg × 10) | paw withdrawal threshold (allodynia), FM 1 h (1 μg/kg p.o., day 14, 1 h after peptide): 4.62 ± 0.00 log 10 (mg × 10) | paw withdrawal threshold (allodynia), FM 3 h (1 μg/kg p.o., day 14, 3 h after peptide): 4.62 ± 0.00 log 10 (mg × 10) | paw withdrawal threshold (allodynia), FM 24 h (1 μg/kg p.o.): 4.62 ± 0.00 log 10 (mg × 10) | paw withdrawal threshold (allodynia), FM 48 h (1 μg/kg p.o.): 4.62 ± 0.00 log 10 (mg × 10) | paw withdrawal threshold (allodynia), FM 72 h (1 μg/kg p.o.): 4.62 ± 0.00 log 10 (mg × 10) | paw withdrawal threshold (allodynia), FM 96 h (1 μg/kg p.o.): 4.22 ± 0.00 log 10 (mg × 10) | paw withdrawal threshold (allodynia), IM (1 μg/kg p.o., day 14 after surgery, before peptide): 4.23 ± 0.01 log 10 (mg × 10) | paw withdrawal threshold (allodynia), FM 1 h (5 μg/kg p.o. + CTOP 20 μg/paw i.pl., 1 h after peptide): 5.00 ± 0.05 log 10 (mg × 10) | paw withdrawal threshold (allodynia), FM 3 h (5 μg/kg p.o. + CTOP 20 μg/paw i.pl., 3 h after peptide): 4.99 ± 0.02 log 10 (mg × 10) | paw withdrawal threshold (allodynia), BM (5 μg/kg p.o. + CTOP 20 μg/paw i.pl., before surgery): 4.99 ± 0.02 log 10 (mg × 10) | paw withdrawal threshold (allodynia), IM (5 μg/kg p.o. + CTOP 20 μg/paw i.pl., day 14, before peptide): 4.29 ± 0.04 log 10 (mg × 10) | paw withdrawal threshold (allodynia), FM 1 h (5 μg/kg p.o. + ICI 174,864 10 μg/paw i.pl., 1 h after peptide): 4.22 ± 0 log 10 (mg × 10) | paw withdrawal threshold (allodynia), FM 3 h (5 μg/kg p.o. + ICI 174,864 10 μg/paw i.pl., 3 h after peptide): 4.22 ± 0 log 10 (mg × 10) | paw withdrawal threshold (allodynia), BM (5 μg/kg p.o. + ICI 174,864 10 μg/paw i.pl., before surgery): 4.96 ± 0.04 log 10 (mg × 10) | paw withdrawal threshold (allodynia), IM (5 μg/kg p.o. + ICI 174,864 10 μg/paw i.pl., day 14, before peptide): 4.29 ± 0.04 log 10 (mg × 10) | paw withdrawal threshold (allodynia), FM 1 h (5 μg/kg p.o. + nor-BNI 50 μg/paw i.pl., 1 h after peptide): 4.62 ± 0 log 10 (mg × 10) | paw withdrawal threshold (allodynia), FM 3 h (5 μg/kg p.o. + nor-BNI 50 μg/paw i.pl., 3 h after peptide): 4.62 ± 0 log 10 (mg × 10) | paw withdrawal threshold (allodynia), BM (5 μg/kg p.o. + nor-BNI 50 μg/paw i.pl., before surgery): 5.03 ± 0.02 log 10 (mg × 10) | paw withdrawal threshold (allodynia), IM (5 μg/kg p.o. + nor-BNI 50 μg/paw i.pl., day 14, before peptide): 4.25 ± 0.03 log 10 (mg × 10) | paw withdrawal threshold (allodynia), FM 1 h (5 μg/kg p.o., 1 h after peptide (Table 16)): 5.08 ± 0.01 log 10 (mg × 10) | paw withdrawal threshold (allodynia), FM 3 h (5 μg/kg p.o., 3 h after peptide (Table 16)): 5.09 ± 0 log 10 (mg × 10) | paw withdrawal threshold (allodynia), BM (5 μg/kg p.o., before surgery (Table 12)): 4.99 ± 0.03 log 10 (mg × 10) | paw withdrawal threshold (allodynia), BM (5 μg/kg p.o., before surgery (Table 16)): 5.00 ± 0.03 log 10 (mg × 10) | paw withdrawal threshold (allodynia), FM 1 h (5 μg/kg p.o., day 14, 1 h after peptide (Table 12)): 4.94 ± 0.05 log 10 (mg × 10) | paw withdrawal threshold (allodynia), FM 3 h (5 μg/kg p.o., day 14, 3 h after peptide (Table 12)): 4.98 ± 0.04 log 10 (mg × 10) | paw withdrawal threshold (allodynia), FM 24 h (5 μg/kg p.o.): 4.97 ± 0.03 log 10 (mg × 10) | paw withdrawal threshold (allodynia), FM 48 h (5 μg/kg p.o.): 4.93 ± 0.04 log 10 (mg × 10) | paw withdrawal threshold (allodynia), FM 72 h (5 μg/kg p.o.): 4.85 ± 0.02 log 10 (mg × 10) | paw withdrawal threshold (allodynia), FM 96 h (5 μg/kg p.o.): 4.21 ± 0.01 log 10 (mg × 10) | paw withdrawal threshold (allodynia), IM (5 μg/kg p.o., day 14, before peptide (Table 16)): 4.27 ± 0.04 log 10 (mg × 10) | paw withdrawal threshold (allodynia), IM (5 μg/kg p.o., day 14 after surgery, before peptide (Table 12)): 4.23 ± 0.00 log 10 (mg × 10) | duration of the anti-allodynic effect (one single administration p.o.): up to 3 days | effect of the mu opioid receptor antagonist on the anti-allodynic effect of the peptide (peptide 5 μg/kg p.o., CTOP 20 μg/paw i.pl.): did not alter | effect of the delta opioid receptor antagonist on the anti-allodynic effect of the peptide (peptide 5 μg/kg p.o., ICI 174,864 10 μg/paw i.pl.): blocked | effect of the kappa opioid receptor antagonist on the anti-allodynic effect of the peptide (peptide 5 μg/kg p.o., nor-BNI 50 μg/paw i.pl.): partially inhibited
